Source: PMC12257542, “A Radiolabeled Photoswitchable G Protein-Coupled Receptor Antagonist Enlightens Ligand Binding Kinetics Associated with Photoswitching” (Journal of the American Chemical Society, 2025)
“And” between values parts separate entries of the source, which are not always exact repeats. Identical values can stand only once. Like-named read-outs stand apart in the source and are kept apart here. One block for each compound: values may come before it.

What was measured:
[1] = Thermal relaxation of PSS cis states (Arrhenius extrapolation); type: physicochemical; settings: approximate; HBSS buffer + 1% DMSO, extrapolated to 20 °C
Method: (§1) Experimental procedures – Photochemistry
(§2) UV−Vis spectra were recorded using a Thermo-scientific Evolution 201 PC spectrophotometer equipped with a thermostated cell holder set at 20 °C. Fits of UV−vis spectroscopy data were generated using Prism 10.1.0. Illumination for almost all photochemical experiments was executed using a Sutter instruments Lambda LS with a 300 W full-spectrum lamp connected to a Sutter instruments Lambda 10-3 optical filter changer equipped with 360 ± 10 nm, 434 ± 9 nm 494 ± 9 nm, or a Lambda 721 optical beam combiner system equipped with 365 ± 11 nm and 506 ± 14 nm filter. The light intensity used for the lambda 10-3 optical filter is 0.93 mW/mm2 using the 360 ± 20 nm filter, 0.79 mW/mm2 for the 434 ± 9 nm filter, 0.77 mW/mm2 for the 494 ± 9 nm filter as measured using a Thorlabs PM16−401 power meter. The light intensity used for the lambda 721 optical beam combiner is 200 mW using the 365 ± 11 nm filter and 60 mW for the 506 ± 12 nm filter. For photochemical analyses, illuminations were performed in Hellma Suprasil quartz 114QS cuvettes. For the dynamic illuminations, a 4-way cuvette holder (Avantes) was used. The left outlet of the holder is connected to an Avantes AvaLight-DH-S-BAL Deuterium lamp. The right outlet is connected through a fiber to an AvaSpec UV/Vis spectrometer. The lower outlet is connected to a Lambda 721 optical beam combiner system equipped with 365 ± 11 nm and 506 ± 14 nm filter illumination means. The upper outlet is covered with a black cap. The temperature of the solution in the cuvette (20 °C) is controlled by Q-blue Wireless Temperature Control software.
Thermal relaxation experiments and Arrhenius extrapolations were performed according to Priimagi et al20, using a compound concentration of 25 μM in HBSS +1% DMSO and temperatures of 50, 60, and 70 °C. Illuminations for pharmacological experiments were performed in cylindrical clear glass vials with a volume of 4.5 mL. The typical distance between light source and vial or cuvette was 2 cm.

[2] = UV-vis spectra of trans and PSS cis states in HBSS buffer; type: physicochemical; settings: 25 μM in HBSS buffer containing 1% DMSO
Method: as §1
as §2, with “software. […]” for “software.”
The typical distance […]
between light source and vial or cuvette was 2 cm.

[3] = Photostationary state area percentages by LC-MS at the isosbestic point; type: physicochemical; settings: for PSScis (area %cis): after illumination of trans isomer with 365 ± 10 nm at 1 mM in DMSO for 10 min
H3R [4] = target: T1, H3R (Homo sapiens, UniProt Q9Y5N1); test: [3H]NAMH competition radioligand binding on cell homogenates overexpressing H3R; settings: for Fold Ki shift: (high-affinity state)/(low-affinity state); for Ki: [3H]NAMH competition, n = 3
H3R [5] = target: T1, H3R; test: Functional H3R NanoBiT-PKA (cAMP sensor) assay in transiently transfected HEK293T cells; type: cell-based; settings: inhibition of forskolin-stimulated cAMP signal, agonist alone
H3R [6] = target: T1, H3R; test: Association and dissociation radioligand binding experiments with [3H]3f; settings: for dissociation t 1/2: t1/2 = ln 2/k off; for Kd: from k off/k on, read-out: pK d(k in) calculated kinetic affinity (converted)
Method: (§3) To determine non-specific
(§4) specific binding from the total binding.
(§5) intervals ranging from 0-20 minutes.
(§6) was measured as described above.
(§7) model to obtain Kd values.

H3R [7] = target: T1, H3R; type: binding
Method: as §3, §4, §5, §6, §7

hH3R = hH3R (Homo sapiens, UniProt Q9Y5N1); test: Competition binding of non-labeled ligands with trans-[3H]3f on hH3R-expressing cell homogenates
[8] = parameters: method as in Hauwert et al.; settings: approximate, extrapolated to 20 °C; ref Hauwert et al.; cited from earlier work
H3R [9] = target: T1, H3R; settings: ref Hauwert et al., cited from earlier work
[10] = parameters: method as in Hauwert et al.; settings: 25 μM in HBSS buffer containing 1% DMSO; ref Hauwert et al.; cited from earlier work
[11] = parameters: method as in Hauwert et al.; settings: ref Hauwert et al., cited from earlier work
[12] = illumination of PSS cis state with 506 ± 20 nm at 1 mM in DMSO for 10 min
[13] = ↓ lower affinity of PSS cis state than trans
[14] = ↑ higher affinity of PSS cis state than trans

T1 sequence (Q9Y5N1 whole entry): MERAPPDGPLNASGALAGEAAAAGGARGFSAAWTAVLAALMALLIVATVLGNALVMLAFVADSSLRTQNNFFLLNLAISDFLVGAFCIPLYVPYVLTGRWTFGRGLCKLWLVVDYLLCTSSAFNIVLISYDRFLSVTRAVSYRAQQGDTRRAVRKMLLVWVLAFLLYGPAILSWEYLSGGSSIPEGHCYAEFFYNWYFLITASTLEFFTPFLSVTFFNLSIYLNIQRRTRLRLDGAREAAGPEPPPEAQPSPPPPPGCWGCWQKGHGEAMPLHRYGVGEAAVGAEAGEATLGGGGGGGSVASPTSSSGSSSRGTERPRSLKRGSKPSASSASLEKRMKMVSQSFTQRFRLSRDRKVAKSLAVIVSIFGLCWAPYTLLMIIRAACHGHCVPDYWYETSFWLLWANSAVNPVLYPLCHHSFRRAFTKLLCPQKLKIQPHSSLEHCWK
Chain of hH3R (Q9Y5N1 whole entry): as above

Half-life (thermal relaxation of PSS cis state) [1]: 170 h
λmax cis [2]: 440 nm
λmax trans [2]: 351 nm
PSScis (area %cis) [3]: 88 area %
PSStrans (area %trans) [3, 12]: 94 area %
Fold Ki shift (H3R [4]; [13]): 12.6 ↓ fold
Compound: Cc1nn(C2CCCCC2)c(C)c1/N=N/c1ccc(O[C@H]2C[C@H](N3CCCCC3)C2)cc1 [Compound 3b]

Compound: c1cc(Cc2cnc[nH]2)ccn1 [immethridine, reference compound]
EC50 (H3R [5]): 0.794 nM

Half-life (thermal relaxation of PSS cis state) [1]: 600 h
λmax cis [2]: 440 nm
λmax trans [2]: 349 nm
PSScis (area %cis) [3]: 94 area %
PSStrans (area %trans) [3, 12]: 95 area %
Fold Ki shift (H3R [4]; [13]): 20.0 ↓ fold
Compound: Cc1nn(C2CCOCC2)c(C)c1/N=N/c1ccc(O[C@H]2C[C@H](N3CCCCC3)C2)cc1 [Compound 3c]

Half-life (thermal relaxation of PSS cis state) [1]: 432 h
λmax cis [2]: 439 nm
λmax trans [2]: 347 nm
PSScis (area %cis) [3]: 95 area %
PSStrans (area %trans) [3, 12]: 93 area %
Fold Ki shift (H3R [4]; [13]): 7.9 ↓ fold
fold improved Ki value of trans isomer compared to trans-2 (H3R [4]; trans isomers): more than 10 fold
Compound: Cc1nn(C)c(C)c1/N=N/c1ccc(O[C@H]2C[C@H](N3CCCCC3)C2)cc1 [Compound 3a]

Half-life (thermal relaxation of PSS cis state) [1]: 696 h
λmax cis [2]: 434 nm
λmax trans [2]: 346 nm
PSScis (area %cis) [3]: 99 area %
PSStrans (area %trans) [3, 12]: 92 area %
Fold Ki shift (H3R [4]; [13]): 25.1 ↓ fold
Ki (H3R [4]; pKi trans ± SEM, trans isomer): 0.501 nM
Compound: Cc1nn(C2CCNCC2)c(C)c1/N=N/c1ccc(O[C@H]2C[C@H](N3CCCCC3)C2)cc1 [Compound 3e]

time at which binding to H3R reaches equilibrium (H3R [6]; 0.5 nM trans state): 15 min
kon (H3R [6]; PSS cis state (preilluminated trans-[3H]3f)): 217000 M⁻¹ s⁻¹
dissociation t 1/2 (H3R [6]; PSS cis state, clobenpropit): 6.2 ± 0.2 min
dissociation t 1/2 (H3R [6]; PSS cis state, clobenpropit, listed as [^3H]3f-PSS cis): 6.2 ± 0.4 min
koff (H3R [6]; PSS cis state, dissociation initiated with clobenpropit): 0.00183 s⁻¹
Kd (H3R [6]; PSS cis state): 12.6 nM
fold lower k on value compared to trans-[3H]3f (H3R [6]; PSS cis versus trans): 10 fold
kon (H3R [6]; trans state, 0.5 nM): 2.15e+06 M⁻¹ s⁻¹
dissociation t 1/2 (H3R [6]; trans state, clobenpropit (10 μM)): 4.9 ± 0.4 min
koff (H3R [6]; trans state, dissociation initiated with 10 μM clobenpropit): 0.0025 s⁻¹
Kd (H3R [6]; trans state): 1.26 nM
H3R binding remaining after exposure to 365 nm light (H3R [7]; prebound trans state 0.5 nM, no competitor present): approximately 0%
dissociation t 1/2 (H3R [7]; prebound trans state, 365 nm light, t1/2 = ln 2/k off): 48 ± 12 s
fold faster dissociation kinetics upon 365 nm illumination (H3R [7]; prebound trans, 365 nm light versus dissociation of dark trans-[3H]3f): 6.2 fold
Compound: [3H]C([3H])([3H])N1CCC(n2nc(C)c(/N=N/c3ccc(O[C@H]4C[C@H](N5CCCCC5)C4)cc3)c2C)CC1 [[^3H]3f]

Ki (hH3R): 3.16 nM
Compound: c1nc(CC2CCNCC2)c[nH]1 [immepip, reference compound]

Half-life (thermal relaxation of PSS cis state) [1]: 48 h
λmax cis [2]: 425 nm
λmax trans [2]: 350 nm
PSScis (area %cis) [3]: 97 area %
PSStrans (area %trans) ([3]; illumination of PSS cis state with 434 ± 20 nm at 1 mM in DMSO for 10 min): 74 area %
Fold Ki shift (H3R [4]; [14]): 4 fold and 4.0 ↑ fold
Ki (H3R [4]; pKi PSScis ± SEM, PSS cis state): 2.51 nM
Compound: c1ccc(/N=N/c2ccc(O[C@H]3C[C@H](N4CCCCC4)C3)cc2)cc1 [Compound 2]

Compound: c1ccc(/N=N/c2ccc(OCCCN3CCCCC3)cc2)cc1 [Compound 1]
Half-life (thermal relaxation of PSS cis state) [8]: 264 h
pKi PSScis ± SEM (H3R [9]; PSS cis state, [3H]NAMH competition): 8.1 ± 0.1
pKi trans ± SEM (H3R [9]; trans isomer, [3H]NAMH competition): 7.3 ± 0.1
Fold Ki shift (H3R [9]; [14]): 6.3 ↑ fold
λmax cis [10]: 432 nm
λmax trans [10]: 344 nm
PSScis (area %cis) ([11]; after illumination of trans isomer with 365 ± 10 nm): 97 area %
PSStrans (area %trans) ([11]; illumination of PSS cis state with 434 ± 20 nm): 68 area %
